In the supplement of paper PMC7661543:
± gives the standard deviation of the averaged measurements.

Experiments:
Experiment in all cases: relative cell number vs DMSO control (72 h) (% of DMSO); higher = less growth inhibition (more cells)
Conditions in all cases: sgRNA knockout: sgNT
BT-20 = tested on: BT-20
Method: (§1)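 QMAP-Seq: a pool of 5 breast cancer cell lines (ZR-75-1, SKBR3, HCC-38, MDA-MB-231, BT-20), each carrying 12 doxycycline-inducible Cas9 sgRNA perturbations (11 knockouts plus non-targeting sgNT), was treated with compounds for 72 h at four 10-fold doses (10 nM-10 uM or 1 nM-1 uM range). Barcodes were amplified and sequenced, and cell number was interpolated from 293T spike-in standard curves. The result is expressed as % of the median of DMSO wells. Two biological replicates.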

HCC-38 = tested on: HCC-38
Method: as §1

MDA-MB-231 = tested on: MDA-MB-231
Method: as §1

SKBR3 = tested on: SKBR3
Method: as §1

ZR-75-1 = tested on: ZR-75-1
Method: as §1

SMILES | relative cell number (BT-20; 1 nM) | relative cell number (BT-20; 10 nM) | relative cell number (BT-20; 100 nM) | relative cell number (BT-20; 1000 nM) | relative cell number (HCC-38; 1 nM) | relative cell number (HCC-38; 10 nM) | relative cell number (HCC-38; 100 nM) | relative cell number (HCC-38; 1000 nM) | relative cell number (MDA-MB-231; 1 nM) | relative cell number (MDA-MB-231; 10 nM) | relative cell number (MDA-MB-231; 100 nM) | relative cell number (MDA-MB-231; 1000 nM) | relative cell number (SKBR3; 1 nM) | relative cell number (SKBR3; 10 nM) | relative cell number (SKBR3; 100 nM) | relative cell number (SKBR3; 1000 nM) | relative cell number (ZR-75-1; 1 nM) | relative cell number (ZR-75-1; 10 nM) | relative cell number (ZR-75-1; 100 nM) | relative cell number (ZR-75-1; 1000 nM) | relative cell number (BT-20; 10000 nM) | relative cell number (HCC-38; 10000 nM) | relative cell number (MDA-MB-231; 10000 nM) | relative cell number (SKBR3; 10000 nM) | relative cell number (ZR-75-1; 10000 nM)
CC(C)[C@]12O[C@H]1[C@@H]1O[C@]13[C@]1(O[C@H]1C[C@H]1C4=C(CC[C@@]13C)C(=O)OC4)[C@@H]2O [Triptolide] | 93.1 ± 20 | 94.44 ± 0.19 | 39.9 ± 12 | 20.8 ± 7.7 | 97.9 ± 20 | 66 ± 0.14 | 23.4 ± 5.6 | 20.5 ± 2.7 | 86.6 ± 8.6 | 44 ± 14 | 16.5 ± 7.3 | 13.7 ± 4.4 | 83.4 ± 9 | 54.6 ± 19 | 12.4 ± 9 | 8.93 ± 1.3 | 71.2 ± 23 | 78 ± 18 | 11.3 ± 8.5 | 7.98 ± 1.1 |  |  |  |  | 
CN1CCc2c(c3ccccc3n2Cc2ccc(C(=O)NO)cc2)C1 [TubastatinA] |  | 98.7 ± 12 | 97.3 ± 11 | 116.9 ± 0.46 |  | 122 ± 20 | 88.7 ± 16 | 114 ± 8.2 |  | 81.3 ± 19 | 95.1 ± 14 | 138 ± 27 |  | 104 ± 5.4 | 59.2 ± 14 | 86.4 ± 15 |  | 80 ± 12 | 74 ± 43 | 93.1 ± 40 | 81.4 ± 33 | 66 ± 2.6 | 50.6 ± 17 | 25.7 ± 14 | 40.4 ± 1.6
Cc1onc(-c2ccccc2)c1-c1ccc(S(N)(=O)=O)cc1 [Valdecoxib] |  | 101 ± 5.5 | 107 ± 17 | 102 ± 21 |  | 111 ± 12 | 91.8 ± 8.2 | 99.8 ± 13 |  | 100 ± 22 | 113 ± 13 | 87.1 ± 4.7 |  | 76.8 ± 16 | 86.5 ± 37 | 88.5 ± 38 |  | 95.3 ± 73 | 76.8 ± 16 | 102 ± 37 | 99.62 ± 0.51 | 98.4 ± 16 | 82.6 ± 1.5 | 124 ± 34 | 112 ± 1.4
C[C@]1(c2nc3c(C(N)=O)cccc3[nH]2)CCCN1 [Veliparib] |  | 109 ± 41 | 116 ± 15 | 118 ± 38 |  | 106 ± 11 | 104 ± 4.2 | 107 ± 18 |  | 135 ± 51 | 144 ± 30 | 148 ± 33 |  | 107 ± 26 | 104 ± 11 | 97.2 ± 27 |  | 88.9 ± 56 | 96.9 ± 12 | 97.1 ± 24 | 91.9 ± 25 | 89.6 ± 4.9 | 97.2 ± 8.6 | 72.7 ± 38 | 51.4 ± 4.1
CC[C@]1(O)C[C@H]2CN(CCc3c([nH]c4ccccc34)[C@@](C(=O)OC)(c3cc4c(cc3OC)N(C=O)[C@H]3[C@@](O)(C(=O)OC)[C@H](OC(C)=O)[C@]5(CC)C=CCN6CC[C@]43[C@@H]65)C2)C1 [Vincristine] |  | 34.7 ± 4.6 | 22.5 ± 6.4 | 28.17 ± 0.087 |  | 23.2 ± 4 | 22.5 ± 2.4 | 21.8 ± 2.9 |  | 30.7 ± 3.3 | 14.4 ± 2.7 | 9.81 ± 3.5 |  | 5.25 ± 0.24 | 3.5 ± 2.5 | 8.88 ± 0.92 |  | 36.6 ± 5.9 | 22.3 ± 1.7 | 9.69 ± 0.85 | 34.5 ± 1.1 | 21.1 ± 1.5 | 8.55 ± 3.1 | 6.97 ± 4.4 | 17.1 ± 4.5
CCC[C@H](NC(=O)/C(C#N)=C/c1cccc(Br)n1)c1ccccc1 [WP1130] |  | 101 ± 53 | 78.7 ± 6.8 | 100 ± 7 |  | 92.9 ± 2.6 | 103 ± 6.8 | 83.8 ± 11 |  | 100 ± 26 | 87.3 ± 10 | 116 ± 47 |  | 84 ± 36 | 51.2 ± 6.4 | 111 ± 7.9 |  | 96.9 ± 44 | 59.7 ± 4.9 | 92.2 ± 22 | 8.98 ± 1.4 | 6.78 ± 2 | 11.7 ± 3.7 | 8.93 ± 1.9 | 6.81 ± 2.8
